Patent US20250000999A1, “POLYMERSOMES FOR CLEARANCE OF AMYLOID BETA AND/OR TAU PROTEINS” (UCL Business Ltd, priority 2021, published 2025)

System: LRP-1
Experiment: Single binding energy of a ligand/LRP-1 receptor pair
Source text: wherein: • λ is the density of the ligand type on the external surface of the microparticle or nanoparticle (number per nm^2 • A is the microparticle or nanoparticle surface area (in nm^2); • ξ is the number of the LRP-1 receptors accessible to the nanoparticles, and thus ξ=ΓA where, Γ is the LRP-1 surface density (number per nm^2) and A is as defined above; • β=(kBT)^−1 wherein kB is the Boltzmann constant (in JK^−1) and T is the absolute temperature in Kelvin; • εB is the single energy of binding of a ligand type/LRP-1 receptor pair (in J); and • uS is the steric potential between the nanoparticle or microparticle and the cell surface (in J).
The single ligand binding potential εB between a given ligand and the LRP-1 receptor can be measured experimentally by binding assays including Surface plasmon resonance spectroscopy, Isothermal titration calorimetry, radiolabeling or fluorescent labelling. It can also be estimated computationally using molecular docking and or molecular dynamics methods.

LRP-1, sequence (Q07954 20-4544, species assumed): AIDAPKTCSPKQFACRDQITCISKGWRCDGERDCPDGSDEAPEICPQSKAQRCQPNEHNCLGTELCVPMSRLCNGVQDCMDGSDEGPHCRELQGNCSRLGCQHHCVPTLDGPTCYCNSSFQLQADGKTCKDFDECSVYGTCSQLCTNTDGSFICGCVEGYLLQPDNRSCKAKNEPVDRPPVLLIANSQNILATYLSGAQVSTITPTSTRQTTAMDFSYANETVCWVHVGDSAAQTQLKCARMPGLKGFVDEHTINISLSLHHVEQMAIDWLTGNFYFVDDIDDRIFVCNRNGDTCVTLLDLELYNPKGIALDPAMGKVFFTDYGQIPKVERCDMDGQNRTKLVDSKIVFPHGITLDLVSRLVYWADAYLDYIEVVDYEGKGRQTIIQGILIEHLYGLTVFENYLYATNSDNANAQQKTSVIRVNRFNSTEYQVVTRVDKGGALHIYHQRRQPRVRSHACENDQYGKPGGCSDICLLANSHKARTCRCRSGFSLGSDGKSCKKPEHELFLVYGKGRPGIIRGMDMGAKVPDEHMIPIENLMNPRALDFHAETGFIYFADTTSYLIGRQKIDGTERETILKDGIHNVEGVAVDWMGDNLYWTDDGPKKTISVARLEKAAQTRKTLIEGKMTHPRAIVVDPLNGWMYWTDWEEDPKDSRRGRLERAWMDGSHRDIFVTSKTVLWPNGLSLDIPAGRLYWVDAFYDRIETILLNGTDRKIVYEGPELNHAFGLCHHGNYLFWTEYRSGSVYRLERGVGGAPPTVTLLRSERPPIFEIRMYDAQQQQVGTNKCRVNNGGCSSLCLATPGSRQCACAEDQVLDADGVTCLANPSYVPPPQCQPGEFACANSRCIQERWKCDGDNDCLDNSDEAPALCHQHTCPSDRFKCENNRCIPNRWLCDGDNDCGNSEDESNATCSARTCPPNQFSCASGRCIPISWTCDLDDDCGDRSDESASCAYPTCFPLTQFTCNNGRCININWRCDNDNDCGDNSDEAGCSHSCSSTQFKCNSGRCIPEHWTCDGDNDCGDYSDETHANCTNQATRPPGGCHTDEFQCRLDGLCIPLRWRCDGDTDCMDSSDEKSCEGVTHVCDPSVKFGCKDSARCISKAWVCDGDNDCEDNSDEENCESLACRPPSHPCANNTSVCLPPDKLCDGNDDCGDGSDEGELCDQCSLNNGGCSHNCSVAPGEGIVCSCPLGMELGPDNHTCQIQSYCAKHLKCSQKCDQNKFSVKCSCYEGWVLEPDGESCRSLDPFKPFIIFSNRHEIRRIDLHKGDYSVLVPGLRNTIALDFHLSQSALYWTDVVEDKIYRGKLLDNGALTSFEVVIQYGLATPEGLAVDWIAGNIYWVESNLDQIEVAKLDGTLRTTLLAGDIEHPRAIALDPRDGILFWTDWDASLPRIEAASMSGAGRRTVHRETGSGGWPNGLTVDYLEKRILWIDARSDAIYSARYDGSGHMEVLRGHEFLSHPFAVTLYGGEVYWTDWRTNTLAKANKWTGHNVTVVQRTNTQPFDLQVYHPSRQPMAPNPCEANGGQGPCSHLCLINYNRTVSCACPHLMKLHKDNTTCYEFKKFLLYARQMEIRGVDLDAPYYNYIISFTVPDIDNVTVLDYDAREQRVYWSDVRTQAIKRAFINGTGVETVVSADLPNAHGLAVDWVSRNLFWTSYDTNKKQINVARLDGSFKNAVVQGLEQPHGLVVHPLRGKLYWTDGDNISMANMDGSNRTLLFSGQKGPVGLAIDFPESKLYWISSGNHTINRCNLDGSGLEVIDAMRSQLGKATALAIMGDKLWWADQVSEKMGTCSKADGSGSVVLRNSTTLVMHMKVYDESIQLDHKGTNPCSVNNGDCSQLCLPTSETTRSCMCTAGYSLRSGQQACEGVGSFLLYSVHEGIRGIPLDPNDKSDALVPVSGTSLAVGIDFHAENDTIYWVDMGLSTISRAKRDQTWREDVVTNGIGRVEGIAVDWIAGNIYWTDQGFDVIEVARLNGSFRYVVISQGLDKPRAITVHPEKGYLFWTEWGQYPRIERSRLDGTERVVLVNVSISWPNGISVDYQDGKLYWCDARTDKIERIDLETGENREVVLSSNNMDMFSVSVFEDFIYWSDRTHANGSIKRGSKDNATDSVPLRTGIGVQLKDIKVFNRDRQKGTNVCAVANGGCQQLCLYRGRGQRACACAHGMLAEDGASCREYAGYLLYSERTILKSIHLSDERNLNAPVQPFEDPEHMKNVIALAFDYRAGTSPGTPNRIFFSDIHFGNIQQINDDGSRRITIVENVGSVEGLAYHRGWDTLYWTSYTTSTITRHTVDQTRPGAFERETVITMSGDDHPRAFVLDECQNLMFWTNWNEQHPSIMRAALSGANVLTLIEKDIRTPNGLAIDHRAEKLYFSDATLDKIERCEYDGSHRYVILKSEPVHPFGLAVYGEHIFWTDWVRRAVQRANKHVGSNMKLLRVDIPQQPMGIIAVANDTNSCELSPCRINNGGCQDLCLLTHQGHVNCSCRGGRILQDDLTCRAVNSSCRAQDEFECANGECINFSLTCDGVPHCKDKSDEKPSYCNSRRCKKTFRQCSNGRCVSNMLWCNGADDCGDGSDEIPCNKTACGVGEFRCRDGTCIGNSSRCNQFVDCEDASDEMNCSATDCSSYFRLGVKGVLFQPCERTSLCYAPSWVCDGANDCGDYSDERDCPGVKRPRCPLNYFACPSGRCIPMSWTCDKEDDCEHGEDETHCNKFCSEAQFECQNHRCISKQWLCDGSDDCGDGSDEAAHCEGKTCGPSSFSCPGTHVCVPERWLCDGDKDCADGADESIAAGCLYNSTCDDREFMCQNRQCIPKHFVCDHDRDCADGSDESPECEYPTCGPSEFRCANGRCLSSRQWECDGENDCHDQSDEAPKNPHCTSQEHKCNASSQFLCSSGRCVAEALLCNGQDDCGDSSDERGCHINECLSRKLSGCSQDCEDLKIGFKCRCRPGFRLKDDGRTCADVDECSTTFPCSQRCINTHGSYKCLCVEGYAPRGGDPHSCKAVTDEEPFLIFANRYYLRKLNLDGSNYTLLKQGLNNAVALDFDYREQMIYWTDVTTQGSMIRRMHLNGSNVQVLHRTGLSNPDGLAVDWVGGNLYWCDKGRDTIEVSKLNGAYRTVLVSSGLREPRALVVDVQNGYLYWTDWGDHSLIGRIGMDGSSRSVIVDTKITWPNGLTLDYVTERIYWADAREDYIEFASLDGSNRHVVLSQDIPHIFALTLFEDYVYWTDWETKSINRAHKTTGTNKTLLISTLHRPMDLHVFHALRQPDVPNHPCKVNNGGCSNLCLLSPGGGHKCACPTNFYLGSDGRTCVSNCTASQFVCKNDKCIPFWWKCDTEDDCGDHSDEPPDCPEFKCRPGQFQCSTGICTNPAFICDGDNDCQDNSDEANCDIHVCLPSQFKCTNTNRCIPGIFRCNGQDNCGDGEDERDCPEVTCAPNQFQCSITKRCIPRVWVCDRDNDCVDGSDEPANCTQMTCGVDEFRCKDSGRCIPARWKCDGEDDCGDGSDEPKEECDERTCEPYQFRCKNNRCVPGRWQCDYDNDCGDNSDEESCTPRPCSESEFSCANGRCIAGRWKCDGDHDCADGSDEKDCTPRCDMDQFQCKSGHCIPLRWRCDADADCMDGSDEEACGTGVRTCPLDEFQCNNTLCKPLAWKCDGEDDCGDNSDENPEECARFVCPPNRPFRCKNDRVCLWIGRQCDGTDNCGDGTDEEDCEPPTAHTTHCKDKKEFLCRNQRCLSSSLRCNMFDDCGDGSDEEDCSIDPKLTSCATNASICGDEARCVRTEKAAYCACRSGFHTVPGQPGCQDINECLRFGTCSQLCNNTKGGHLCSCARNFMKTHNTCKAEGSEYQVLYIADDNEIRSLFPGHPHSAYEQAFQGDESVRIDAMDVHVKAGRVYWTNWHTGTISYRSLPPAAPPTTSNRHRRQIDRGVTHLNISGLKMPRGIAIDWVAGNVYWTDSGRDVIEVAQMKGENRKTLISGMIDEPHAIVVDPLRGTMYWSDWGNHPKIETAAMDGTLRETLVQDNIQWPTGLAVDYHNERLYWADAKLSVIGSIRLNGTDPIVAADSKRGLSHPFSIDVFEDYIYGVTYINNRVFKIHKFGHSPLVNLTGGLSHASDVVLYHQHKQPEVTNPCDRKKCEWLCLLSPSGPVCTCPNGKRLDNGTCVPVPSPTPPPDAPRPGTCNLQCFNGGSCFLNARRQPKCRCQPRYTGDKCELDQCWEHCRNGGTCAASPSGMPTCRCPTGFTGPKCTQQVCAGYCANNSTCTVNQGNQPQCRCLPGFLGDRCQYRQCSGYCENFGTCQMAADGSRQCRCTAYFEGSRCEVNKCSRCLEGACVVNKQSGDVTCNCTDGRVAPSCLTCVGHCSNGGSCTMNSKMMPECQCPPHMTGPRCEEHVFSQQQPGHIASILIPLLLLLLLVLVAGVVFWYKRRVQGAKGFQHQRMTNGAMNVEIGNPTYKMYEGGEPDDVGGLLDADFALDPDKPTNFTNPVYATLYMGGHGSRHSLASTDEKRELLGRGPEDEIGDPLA

εB, single energy of binding of ligand/LRP-1 receptor pair: −15 kBT
Sequence: TFFYGGSRGKRNNFKTEEY [Angiopep-2]
